“Also recorded” adds a separate entry of the source.
Assays:
[1] = Adverse event recording after [^89Zr]Zr-PSMA-617 PET/CT; assay type: in vivo, human (patients); details: 7 patients, 111 ± 11 MBq i.v., during examination and 4 weeks follow-up
Procedure: Any adverse event was recorded during and after examination. Vital parameters as heart rate, blood pressure, body temperature, and oxygen saturation were closely monitored. Within a time interval of 4 weeks after [^89Zr]Zr-PSMA-617 PET/CT, patients were additionally interviewed about potential side effects.

[2] = [^89Zr]Zr-PSMA-617 PET/CT biodistribution in normal organs (SUV, tissue-to-background ratio); assay type: in vivo, human (patients); details: for SUVmax: mean ± SD
Procedure: Each patient underwent PET/CT imaging scans at 4 time points: 1 h, 24 h, 48 h, and 72 h post intravenous injection (p.i.) of 111 ± 11 MBq (mean ± standard deviation, range 97–129 MBq) [^89Zr]Zr-PSMA-617. All PET/CT imaging was performed on a Biograph mCT 40 scanner (Siemens Medical Solutions, Knoxville, TN, USA) comprising whole-body PET/CT scans extending from vertex to mid-femur in 3D mode. PET acquisition time duration was 4 min per bed position on the initial day of injection and extended up to 10 min on the last day. CT data were acquired in low-dose technique using an X-ray tube voltage of […] and a modulation of the tube current (CARE Dose4D, Siemens Erlangen; maximal tube current 30 mA) followed by reconstruction with a soft tissue reconstruction kernel (B31f) to a slice thickness of 5 mm (increment 2–4 mm). PET emission data was corrected for decay, randoms, and scatter. PET image reconstruction was performed applying an iterative 3-dimensional ordered-subset expectation maximization (OSEM) algorithm (3 iterations; 24 subsets) with gaussian filtering to a transaxial resolution of 5 mm at full width half maximum (FWHM). The matrix and the pixel size were 200 × 200 and 3.0 mm, respectively. Attenuation correction was performed using the low-dose CT data.
The biodistribution of [^89Zr]Zr-PSMA-617 was quantified by analyzing the standard uptake values (SUV) SUVmax, SUVpeak and SUVmean at 1 h, 24 h, 48 h, and 72 h p.i.. Considering normal-organs, elliptical volumes of interest (VOI) were manually drawn enclosing regions of relatively homogenous uptake. Activity estimation was performed within the VOI applying a 40% or, in case of faintly accumulating organs, a 20% threshold using the SyngoVia software (Enterprise VB 60, Siemens, Erlangen, Germany). The following organs were included in this evaluation: the brain, salivary, and lacrimal glands, nasal mucosa, lung, liver, spleen, small and large intestine, and the kidneys. With regard to the large intestine, SUV was determined at the descending colon. Blood pool and background were evaluated in the descending aorta and the gluteal muscle, respectively. Tissue-to-background ratios (TiBR) were calculated by dividing the SUVmax of the organs by the SUVmean of the background (gluteal muscle).

For `O=C([O-])CN1CCN(CC(=O)[O-])CCN(CC(=O)NCC2CCC(C(=O)NC(Cc3ccc4ccccc4c3)C(=O)NCCCCC(NC(=O)NC(CCC(=O)O)C(=O)O)C(=O)O)CC2)CCN(CC(=O)[O-])CC1.[89Zr+4]` (centres unmarked) [[^89Zr]Zr-PSMA-617], which “Side effects / adverse events” value [1] is on record?
The value was “not associated with any side effects; also recorded: no other side effects were observed”.

What about the SUVmax ([2]; colon, 1 h p.i.) of the same compound?
Its SUVmax is 3.50 ± 2.21.

And the SUVmax ([2]; colon, 72 h p.i.)?
The SUVmax was 13.57 ± 5.00.

And the SUVmax ([2]; kidneys, 1 h p.i.)?
The SUVmax was 21.15 ± 12.31.

And the SUVmax ([2]; kidneys, 72 h p.i.)?
Its SUVmax is 7.43 ± 1.56.

And the “Tissue-to-background ratio (TiBR)” value ([2]; salivary glands, kidneys, and colon at 72 h p.i., SUVmax organ / SUVmean gluteal muscle)?
Its value is no less than 50.

And the SUVmax ([2]; submandibular gland, 24 h p.i.)?
Its SUVmax is 17.30 ± 4.69.

What about the SUVmax ([2]; submandibular gland, 72 h p.i.) of the same compound?
Its SUVmax is 6.29 ± 1.61.
